Data: US10597364B2, “Anthelmintic compounds, compositions and method of using thereof” (priority 2015, dated 2020)
Where two headings read alike, the source gives them in different places.

Assays:
Haemonchus contortus = assay: Method A: Haemonchus contortus L1 larval development/motility screen in microtitre plate; type: cell-based; conditions: 96 h, read-out: motility inhibition
[1] = system: microfilaria of Dirofilaria immitis; assay: Method C: microfilaria of Dirofilaria immitis motility screen; type: cell-based; conditions: read-out: inhibition of the microfilaria's motility

Row | SMILES | inhibition at 5 µM (Haemonchus contortus) | inhibition at 10 µM ([1]; 24 h) | inhibition at 5 ppm ([1]; 24 h) | further results
1 | CCCCN1CCN(c2cncc(O[C@H]3CC[C@H](Nc4ccc([N+](=O)[O-])c(C(F)(F)F)c4)CC3)c2)CC1 [Compound 53] | ≥ 90% | ≥ 90% | – | –
2 | COCCOCC(=O)N1CCN(c2cc(O[C@H]3CC[C@H](Nc4ccc([N+](=O)[O-])c(C(F)(F)F)c4)CC3)ccn2)CC1 [Compound 72] | ≥ 90% | ≥ 90% | – | –
3 | O=C(Cc1ccc(F)cc1)N1CCN(c2cc(O[C@H]3CC[C@H](Nc4ccc([N+](=O)[O-])c(C(F)(F)F)c4)CC3)ccn2)CC1 [Compound 46] | ≥ 90% | ≥ 90% | – | –
4 | CCCC(=O)N1CCN(c2cc(O[C@H]3CC[C@H](Nc4ccc([N+](=O)[O-])c(C(F)(F)F)c4)CC3)ccn2)CC1 [Compound 40] | ≥ 90% | – | – | inhibition at 10 µM ([1]; 10 μM, 24 hours): ≥ 90%
5 | CC(C)(C)CN1CCN(c2cncc(O[C@H]3CC[C@H](Nc4ccc([N+](=O)[O-])c(C(F)(F)F)c4)CC3)c2)CC1 [Compound 54] | ≥ 90% | – | – | inhibition at 10 µM ([1]; 10 μM, 24 hours): ≥ 90%
6 | CCCN1CCN(c2cncc(O[C@H]3CC[C@H](Nc4ccc([N+](=O)[O-])c(C(F)(F)F)c4)CC3)c2)CC1 [Compound 77] | ≥ 90% | ≥ 90% | – | –
7 | CC(C)(C)CC(=O)N1CCN(c2cc(O[C@H]3CC[C@H](Nc4ccc([N+](=O)[O-])c(C(F)(F)F)c4)CC3)ccn2)CC1 [Compound 33] | ≥ 90% | ≥ 90% | – | –
8 | CCC(=O)N1CCN(c2cncc(O[C@H]3CC[C@H](Nc4ccc([N+](=O)[O-])c(C(F)(F)F)c4)CC3)c2)CC1 [Compound 64] | ≥ 90% | – | ≥ 90% | –
9 | CCCN1CCN(c2ccnc(O[C@H]3CC[C@H](Nc4ccc([N+](=O)[O-])c(C(F)(F)F)c4)CC3)c2)CC1 [Compound 87] | ≥ 90% | ≥ 90% | – | –
10 | O=C(CC1CC1)N1CCN(c2cc(O[C@H]3CC[C@H](Nc4ccc([N+](=O)[O-])c(C(F)(F)F)c4)CC3)ccn2)CC1 [Compound 28] | ≥ 90% | ≥ 90% | – | –
11 | O=C(Oc1ccc(F)cc1)N1CCN(c2ccnc(O[C@H]3CC[C@H](Nc4ccc([N+](=O)[O-])c(C(F)(F)F)c4)CC3)c2)CC1 [Compound 30] | ≥ 90% | – | ≥ 90% | –
12 | O=C(NC1CCCC1)N1CCN(c2cncc(O[C@H]3CC[C@H](Nc4ccc([N+](=O)[O-])c(C(F)(F)F)c4)CC3)c2)CC1 [Compound 82] | ≥ 90% | ≥ 90% | – | –
13 | O=C(Cc1ccc(C(F)(F)F)cc1)N1CCN(c2ccnc(O[C@H]3CC[C@H](Nc4ccc([N+](=O)[O-])c(C(F)(F)F)c4)CC3)c2)CC1 [Compound 61] | ≥ 90% | – | ≥ 90% | –
14 | CCOC(=O)N1CCN(c2cncc(O[C@H]3CC[C@H](Nc4ccc([N+](=O)[O-])c(C(F)(F)F)c4)CC3)c2)CC1 [Compound 38] | ≥ 90% | – | ≥ 90% | –
15 | O=[N+]([O-])c1ccc(N[C@H]2CC[C@H](Oc3cc(N4CCN(CC5CCCC5)CC4)ccn3)CC2)cc1C(F)(F)F [Compound 47] | ≥ 90% | ≥ 90% | – | –
16 | CCCNC(=O)N1CCN(c2ccnc(O[C@H]3CC[C@H](Nc4ccc([N+](=O)[O-])c(C(F)(F)F)c4)CC3)c2)CC1 [Compound 85] | ≥ 90% | – | – | inhibition at 5 ppm ([1]; 5 ppm, 24 hours): ≥ 90%
17 | O=[N+]([O-])c1ccc(N[C@H]2CC[C@H](Oc3cncc(N4CCN(C/C=C/c5ccc(C(F)(F)F)cc5)CC4)c3)CC2)cc1C(F)(F)F [Compound 48] | ≥ 90% | – | ≥ 90% | –
18 | O=[N+]([O-])c1ccc(N[C@H]2CC[C@H](Oc3cncc(N4CCN(C(=S)NC5CCCC5)CC4)c3)CC2)cc1C(F)(F)F [Compound 79] | ≥ 90% | – | ≥ 90% | –
19 | CCCNC(=O)N1CCN(c2cncc(O[C@H]3CC[C@H](Nc4ccc([N+](=O)[O-])c(C(F)(F)F)c4)CC3)c2)CC1 [Compound 95] | ≥ 90% | – | – | inhibition at 10 µM ([1]; 10 μM, 24 hours): ≥ 90%
20 | CC(C)(C)NC(=O)N1CCN(c2cc(O[C@H]3CC[C@H](Nc4ccc([N+](=O)[O-])c(C(F)(F)F)c4)CC3)ccn2)CC1 [Compound 49] | ≥ 90% | ≥ 90% | – | –
21 | O=C(Nc1ccc(F)cc1)N1CCN(c2cncc(O[C@H]3CC[C@H](Nc4ccc([N+](=O)[O-])c(C(F)(F)F)c4)CC3)c2)CC1 [Compound 106] | ≥ 90% | – | – | inhibition at 10 µM ([1]; 10 μM, 24 hours): ≥ 90%

Row | SMILES | inhibition at 5 µM (Haemonchus contortus) | inhibition at 10 µM ([1]; 24 h) | inhibition at 5 ppm ([1]; 24 h) | further results
22 | CC(C)(C)CN1CCN(c2cc(O[C@H]3CC[C@H](Nc4ccc([N+](=O)[O-])c(C(F)(F)F)c4)CC3)ccn2)CC1 [Compound 67] | ≥ 90% | – | – | inhibition at 10 µM ([1]; 10 μM, 24 hours): ≥ 90%
23 | N#Cc1ccc(N[C@H]2CC[C@H](Oc3cc(N4CCN(C(=O)CC5CCCC5)CC4)ccn3)CC2)cc1C(F)(F)F [Compound 183] | ≥ 90% | ≥ 90% | – | –
24 | CCCC(=O)N1CCN(c2ccnc(O[C@H]3CC[C@H](Nc4ccc([N+](=O)[O-])c(C(F)(F)F)c4)CC3)c2)CC1 [Compound 39] | ≥ 90% | – | ≥ 90% | –
25 | CCCN1CCN(c2cc(O[C@H]3CC[C@H](Nc4ccc([N+](=O)[O-])c(C(F)(F)F)c4)CC3)ccn2)CC1 [Compound 78] | ≥ 90% | – | – | inhibition at 10 µM ([1]; 10 μM, 24 hours): ≥ 90%
26 | CC(C)(C)OC(=O)N1CCN(c2ccnc(O[C@H]3CC[C@H](Nc4ccc(C#N)c(C(F)(F)F)c4)CC3)c2)CC1 [Compound 59] | ≥ 90% | ≥ 90% | – | –
27 | N#Cc1ccc(N[C@H]2CC[C@H](Oc3ccnc(N4CCN(C(=O)CC5CCCC5)CC4)c3)CC2)cc1C(F)(F)F [Compound 177] | ≥ 90% | ≥ 90% | – | –
28 | O=[N+]([O-])c1ccc(N[C@H]2CC[C@H](Oc3cc(N4CCN(C(=S)Nc5ccc(C(F)(F)F)cc5)CC4)ccn3)CC2)cc1C(F)(F)F [Compound 68, 4-[2-[(4-[[4-nitro-3-(trifluoromethyl)phenyl]amino]cyclohexyl)oxy]pyridin-4-yl]-N-[4-(trifluoromethyl)phenyl]piperazine-1-carbothioamide] | ≥ 90% | – | ≥ 90% | –
29 | O=[N+]([O-])c1ccc(N[C@H]2CC[C@H](Oc3cc(N4CCN(C(=S)NC5CCCC5)CC4)ccn3)CC2)cc1C(F)(F)F [Compound 81] | ≥ 90% | – | ≥ 90% | inhibition at 1 ppm ([1]; 24 h): ≥ 90%
30 | O=C(CC(F)(F)F)N1CCN(c2cc(O[C@H]3CC[C@H](Nc4ccc([N+](=O)[O-])c(C(F)(F)F)c4)CC3)ccn2)CC1 [Compound 71] | ≥ 90% | ≥ 90% | – | –
31 | O=[N+]([O-])c1ccc(N[C@H]2CC[C@H](Oc3ccnc(N4CCN(Cc5nc6cc(C(F)(F)F)ccc6s5)CC4)c3)CC2)cc1C(F)(F)F [Compound 86] | ≥ 90% | – | ≥ 90% | –
32 | CCNC(=O)N1CCN(c2ccnc(O[C@H]3CC[C@H](Nc4ccc([N+](=O)[O-])c(C(F)(F)F)c4)CC3)c2)CC1 [Compound 96] | ≥ 90% | ≥ 90% | – | –
33 | CC(C)(C)NC(=O)N1CCN(c2ccnc(O[C@H]3CC[C@H](Nc4ccc([N+](=O)[O-])c(C(F)(F)F)c4)CC3)c2)CC1 [Compound 65, N-tert-butyl-4-[2-[(4-[[4-nitro-3-(trifluoromethyl)phenyl]amino]cyclohexyl)oxy]pyridin-4-yl]piper-azine-1-carboxamide] | ≥ 90% | – | ≥ 90% | –
34 | CC(C)(C)CC(=O)N1CCN(c2ccnc(O[C@H]3CC[C@H](Nc4ccc([N+](=O)[O-])c(C(F)(F)F)c4)CC3)c2)CC1 [Compound 25] | ≥ 90% | ≥ 90% | – | –
35 | N#Cc1ccc(N[C@H]2CC[C@H](Oc3cncc(N4CCN(Cc5ccc(C(F)(F)F)cc5)CC4)c3)CC2)cc1C(F)(F)F [Compound 181] | ≥ 90% | ≥ 90% | – | –
36 | CC(C)(C)NC(=O)N1CCN(c2cncc(O[C@H]3CC[C@H](Nc4ccc([N+](=O)[O-])c(C(F)(F)F)c4)CC3)c2)CC1 [Compound 66] | ≥ 90% | – | ≥ 90% | –
37 | O=C(OC1CCCC1)N1CCN(c2cncc(O[C@H]3CC[C@H](Nc4ccc([N+](=O)[O-])c(C(F)(F)F)c4)CC3)c2)CC1 [Compound 196, cyclopentyl 4-(5-[[4-[[4-nitro-3-(trifluoromethyl)phenyl]amino]cyclohexyl]oxy]pyridin-3-yl)piperazine-1-carboxylate] | ≥ 90% | – | ≥ 90% | –
38 | CCCCN1CCN(c2cc(O[C@H]3CC[C@H](Nc4ccc([N+](=O)[O-])c(C(F)(F)F)c4)CC3)ccn2)CC1 [Compound 41] | ≥ 90% | ≥ 90% | – | –
39 | CCOCCC(=O)N1CCN(c2cc(O[C@H]3CC[C@H](Nc4ccc([N+](=O)[O-])c(C(F)(F)F)c4)CC3)ccn2)CC1 [Compound 70] | ≥ 90% | ≥ 90% | – | –
40 | O=[N+]([O-])c1ccc(N[C@H]2CC[C@H](Oc3cncc(N4CCN(Cc5nc6cc(C(F)(F)F)ccc6s5)CC4)c3)CC2)cc1C(F)(F)F [Compound 62] | ≥ 90% | – | – | –
41 | O=[N+]([O-])c1ccc(N[C@H]2CC[C@H](Oc3cncc(N4CCN(c5ccc6cc(C(F)(F)F)ccc6n5)CC4)c3)CC2)cc1C(F)(F)F [Compound 90] | ≥ 90% | – | – | –
